One assay has as its target T1, 5α-reductase (Homo sapiens, UniProt P18405).
T1 construct: host or cells: Hs68 human genital skin fibroblasts
T1 sequence (P18405 1-259): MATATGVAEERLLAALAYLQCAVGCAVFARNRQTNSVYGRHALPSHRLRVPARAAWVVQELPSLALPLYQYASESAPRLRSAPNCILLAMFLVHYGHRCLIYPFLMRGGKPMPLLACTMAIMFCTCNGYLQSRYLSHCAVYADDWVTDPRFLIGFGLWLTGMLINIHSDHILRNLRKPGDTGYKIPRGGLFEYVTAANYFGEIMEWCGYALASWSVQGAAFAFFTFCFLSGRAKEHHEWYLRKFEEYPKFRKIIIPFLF
The assay is described as follows: 5α-Reductase activity in Hs68 human genital skin fibroblasts (conversion of labeled testosterone, TLC analysis). In kind it is cell-based. As to conditions: Hs68. On the procedure: Cell Culture: 5α-Reductase activity was measured using Hs68 human genital skin fibroblasts which were originally purchased from the American Type Culture Collection (Rockville, MD). The cells were grown in Dulbecco's Modified Eagle's Medium (DMEM) plus 10% stripped fetal bovine serum which was supplemented with amphotericin B ([…]) and gentamicin ([…]) (GIBCO, Grand Island, NY). The serum was stripped of endogenous steroids by incubation with dextran-coated charcoal prior to its addition to the media. The cells were maintained at 37°C in an atmosphere of 95% air, 5% CO2 and were passaged every 7-10 days by exposure to a trypsin-EDTA solution (0.025% trypsin, 0.265 mM EDTA). Prior to the assay the Hs68 cells were harvested and plated in Falcon 6-well plates (Becton Dickinson Labware, Lincoln Park, NJ) at a density of 6 x 10^4 cells per well. The cells were allowed to grow for 4-5 days or until they reached approximately 80% confluence.
Assay Method I: The substrate was prepared by dissolving unlabeled testosterone (Sigma Chemical Co., St. Louis, MO) in absolute ethanol followed by the addition of [7-^3H (N)]-testosterone (23.3 Ci/mmole, New England Nuclear, Boston, MA). The steroid solution was taken to dryness under a stream of nitrogen and then reconstituted in media.
Assay Method II: The substrate used for this method was [^14C]-testosterone (50 mCi/mmol) (New England Nuclear, Boston, MA). An aliquot of the substrate was taken to dryness under a stream of nitrogen. After the addition of 30 µl of ethanol, the testosterone was dissolved in an appropriate volume of media.
Sample Preparation: The test compounds were brought up in absolute ethanol in order to achieve the desired concentration. Subsequent dilutions of the test compounds with media were performed by the Biomek 1000 Automated Laboratory Workstation (Beckman Instruments, Palo Alto, CA). The existing media in the sample wells was aspirated and replaced with fresh media. Test compound was then added to the wells followed by the addition of 0.5 ml of substrate. The volume of the incubation mixture was maintained at 2.0 ml. The final substrate concentration was 12 µM. The concentration of the test compounds ranged from 0.001-150 µM. An additional three wells (background) containing media and substrate but no cells were also included to account for the non-enzymatic metabolism of the substrate. The plates were returned to the incubator and incubated for four hours.
At the end of the incubation the media was collected and transferred to an extraction tube containing 5 ml of toluene-ethanol (9:1), to which has been added 20-250 µg each of unlabeled carrier steroids (estriol, estradiol, estrone, 5α-androstan-3α,17β-diol, 5α-androstan-3β,17β-diol, 4-androstene-3,17-dione, 5α-androstan-3,17-dione, testosterone, and 5α-dihydrotestosterone) (Steraloids, Inc., Wilton, NH). In the case of Assay Method I the extraction tube also contained 1,000 and 10,000 dpm of [4-^14C]-dihydrotestosterone (50-60 mCi/mmol) and [4-^14C]-testosterone (50 mCi/mmol) (New England Nuclear, Boston, MA), respectively. The [^14C]-steroids were included as recovery standards to quantify procedural losses. A small amount of NaCl was also added to the extraction tubes to prevent foaming. The samples were vortexed for approximately 30 seconds and then centrifuged for 10 minutes at 500 x g. The organic phase was collected and the samples taken to dryness, redissolved in dichloromethane-methanol (9:1) and were analyzed by thin layer chromatography using one of the methods described below.
Chromatography Method I (two-dimensional): The extracted samples were appled to silica gel 60F254, 0.25 mm thick, thin layer chromatography plates (EM Science, Cincinnati, OH). The plates were developed in the first dimension with a solvent system containing dichloromethane-ethyl acetate-methanol-acetic acid (160:38:1.5:0.5, Mallinckrodt Inc., Paris, KY).
In turn, `CN1C(=O)CC[C@@H]2c3ccc(Cl)cc3CC[C@H]21` (racemic) [Example 6, trans-dl-8-chloro-4-methyl-1,2,3,4,4a,5,6,10b-octahydrobenzo[f]quinolin-3-one] gave an inhibition at 1 µM of 100%.

Staying with this assay, now noted: Hs68, test compound 0.316 µM; Hs68 cells; substrate testosterone 12 µM; incubated four hours; read-out: % Inhibition.
Take `CN1C(=O)CC[C@@H]2c3ccc(CCC(=O)NC(C)(C)C)cc3CC[C@H]21` (racemic) [Example 55, trans-dl-8-t-butylaminocarbonylethanediyl-4-methyl-1,2,3,4,4a,5,6,10b-octahydrobenzo[f]quinolin-3-one]: the inhibition at 0.316 µM was 17.3%.

For `CN1C(=O)CC[C@]2(C)c3ccc(Cl)cc3CC[C@@H]12` [Example 59, (R) (+)-trans-4-methyl-8-chloro-10b-methyl-1,2,3,4,4a,5,6,10b-octahydrobenzo[f]quinolin-3-one], the inhibition at 0.316 µM came out at 71.9%. Same read-out and setting: to `CN1C(=O)CC[C@@H]2c3cc(Cl)ccc3CC[C@H]21` (racemic) [Example 49, trans-dl-9-chloro-4-methyl-1,2,3,4,4a,5,6,10b-octahydrobenzo[f]guinolin-3-one] belongs 65.7%; to `CN1C(=O)CC[C@H]2c3ccc(Cl)cc3CC[C@@H]21` [Example 65, (+)-(4aS)-(10bS)-8-chloro-4-(methyl)-1,2,3,4,4a,5,6,10b-octahydrobenzo[f]quinolin-3-one], 95.6%; to `O=C1C=C[C@@H]2c3ccc(Cl)cc3CC[C@H]2N1` (racemic) [Example 50A, trans-dl-8-chloro-3,4,4a,5,6,10b-hexahydrobenzo[f]quinolin-3-one], 83.3%.

`CN1C(=O)CC=C2c3ccc(Cl)cc3CCC21` (racemic) [Example 53, dl-8-chloro-4-methyl-2,3,4,4a,5,6-hexahydrobenzo[f]quinolin-3-one]: the inhibition at 0.316 µM turned out to be 74.8%. Still for that read-out and setting: the result for `CN1C(=O)CC[C@@H]2c3ccc(I)cc3CC[C@H]21` (racemic) [Example 3, trans-dl-8-iodo-4-methyl-1,2,3,4,4a,5,6,10b-octahydrobenzo[f]-quinolin-3-one] reads 100%; that for `CN1C(=O)CC[C@@H]2c3cc([N+](=O)[O-])ccc3CC[C@H]21` (racemic) [Example 47, trans-dl-9-nitro-4-methyl-1,2,3,4,4a,5,6,10b-octahydrobenzo[f]quinolin-3-one], 49.7%. On the same count and under the same terms, the result for `CN1C(=O)CCC2c3ccc(C=CC(=O)NC(C)(C)C)cc3CCC21` (racemic) [Example 25, trans-dl-8-t-butylaminocarbonylethenediyl-4-methyl-1,2,3,4,4a,5,6,10b-octahydrobenzo[f]quinolin-3-one] reads 35.9%; that for `O=C1CC[C@@H]2c3cc(Cl)c(Cl)cc3CC[C@H]2N1` (racemic) [Example 4, trans-dl-8,9-dichloro-1,2,3,4,4a,5,6,10b-octahydrobenzo[f]quinolin-3-one], 82.1%.

Still in this assay, the particulars now being: Hs68, test compound 1.00 µM; Hs68 cells; substrate testosterone 12 µM; incubated four hours.
With `CN1C(=O)CC[C@@H]2c3ccc(Br)cc3CC[C@@H]21` (racemic) [Example 1B, cis-dl-8-bromo-4-methyl-1,2,3,4,4a,5,6,10b-octahydrobenzo[f]quinolin-3-one], the inhibition at 1 µM was determined as 92.7%. Still for that read-out and setting: to `CN1C(=O)CC[C@@H]2c3ccc(Cl)cc3CC[C@@H]21` (racemic) [Example 7, cis-dl-8-chloro-4-methyl-1,2,3,4,4a,5,6,10b-octahydrobenzo[f]quinolin-3-one] belongs 100%.

Still in this assay, the particulars now being: Hs68, test compound 1.00 µM; Hs68 cells; substrate testosterone 12 µM; incubated four hours; read-out: % Inhibition.
On to `CN1C(=O)C=C[C@@H]2c3ccc(Cl)cc3CC[C@H]21` (racemic) [Example 52, trans-dl-8-chloro-4-methyl-3,4,4a,5,6,10b-hexahydrobenzo[f]quinolin-3-one], for which the inhibition at 1 µM was determined as 71.8%.

For the compound `Cc1ccc2c(c1)CC[C@H]1[C@@H]2CCC(=O)N1C` (racemic) [Example 9, cis-dl-4,8-dimethyl-1,2,3,4,4a,5,6,10b-octahydrobenzo[f]quinolin-3-one], the inhibition at 1 µM was determined as 100%. Turning to `O=C1CCC2c3ccc(Cl)cc3CCC2N1` (racemic) [Example 17, trans-dl-8-chloro-1,2,3,4,4a,5,6,10b-octahydrobenzo[f]quinolin-3-one], the inhibition at 1 µM is 100%. Consider `CN1C(=O)CCC2(C)c3ccc(F)cc3CCC12` (racemic) [Example 32, trans-dl-8-fluoro-4,10b-dimethyl-1,2,3,4,4a,5,6,10b-octahydrobenzo[f]quinolin-3-one], for which the inhibition at 1 µM was 81.6%. On the same count and under the same terms, to `C[C@]12CCC(=O)N[C@@H]1CCc1cc(Cl)ccc12` (racemic) [Example 38, trans-dl-8-chloro-10b-methyl-1,2,3,4,4a,5,6,10b-octahydrobenzo[f]quinolin-3-one] belongs 34%; to `CN1C(=O)CC[C@@H]2c3ccc(F)cc3CC[C@@H]21` (racemic) [Example 11, cis-dl-8-fluoro-4-methyl-1,2,3,4,4a,5,6,10b-octahydrobenzo[f]quinolin-3-one], 59.2%. For `Cc1ccc2c(c1)CC[C@@H]1[C@@H]2CCC(=O)N1C` (racemic) [Example 8, trans-dl-4,8-dimethyl-1,2,3,4,4a,5,6,10b-octahydrobenzo[f]quinolin-3-one], the inhibition at 1 µM amounted to 100%. On the same count and under the same terms, the result for `O=C1CC[C@@H]2c3ccc(Br)cc3CC[C@H]2N1` (racemic) [Example 2, trans-dl-8-bromo-1,2,3,4,4a,5,6,10b-octahydrobenzo[f]quinolin-3-one] reads 100%. Same read-out and setting: the result for `COc1ccc2c(c1)CCC1NC(=O)CCC21` (racemic) [Example 18, trans-dl-8-methoxy-1,2,3,4,4a,5,6,10b-octahydrobenzo[f]quinolin-3-one] reads 69.8%; that for `CN1C(=O)CC[C@@H]2c3ccc(F)cc3CC[C@H]21` (racemic) [Example 10, trans-dl-8-fluoro-4-methyl-1,2,3,4,4a,5,6,10b-octahydrobenzo[f]quinolin-3-one], 100%.

Staying with this assay, now noted: Hs68, test compound 3.16 µM; Hs68 cells; substrate testosterone 12 µM; incubated four hours.
In turn, `CN1C(=O)CC[C@@]2(C)c3ccccc3CC[C@H]12` (stereo in doubt) [Example 45, trans-4-methyl-10b-methyl-1,2,3,4,4a,5,6,10b-octahydrobenzo[f]quinolin-3-one] registered an inhibition at 3.16 µM of 72.2%. On the same count and under the same terms, to `O=C1CCC2c3ccc(F)cc3CCC2N1` (racemic) [Example 15, trans-dl-8-fluoro-1,2,3,4,4a,5,6,10b-octahydrobenzo[f]quinolin-3-one] belongs 100%.

Still in this assay, the particulars now being: test compound 0.316 µM; Hs68 cells; substrate testosterone 12 µM; incubated four hours.
With `CC1CC2c3ccc(Cl)cc3CCC2N(C)C1=O` (racemic) [Example 26B, trans-dl-8-chloro-2-(β-methyl)-4-methyl-1,2,3,4,4a,5,6,10b-octahydrobenzo[f]quinolin-3-one], the “% Inhibition” value stood at 76.36%.

The assay is the same for the next values; noted with them: test compound 15.00 µM; Hs68 cells; substrate testosterone 12 µM; incubated four hours.
On to `O=C1CC[C@@H]2c3cc([N+](=O)[O-])ccc3CC[C@H]2N1` (racemic) [Example 46, trans-dl-9-nitro-1,2,3,4,4a,5,6,10b-octahydrobenzo[f]quinolin-3-one], for which the inhibition at 15 µM is 69.9%.

The values above are taken from patent EP0591583B1, “Benzo (f) quinolinones as 5-alpha-reductase inhibitors” (ELI LILLY AND COMPANY, priority 1992, dated 1994).
